Assay in all cases: relative viability (nuclei count vs DMSO), 5 days (fraction); higher = more cells survive
Compound in the assay “IPA-3 + Trametinib”: C1=CC=C2C(=C1)C=CC(=C2SSC3=C(C=CC4=CC=CC=C43)O)O [IPA-3] + CC(=O)Nc1cccc(-n2c(=O)n(C3CC3)c(=O)c3c(Nc4ccc(I)cc4F)n(C)c(=O)c(C)c32)c1 [Trametinib] (partner 0.02 µM)
The gist of the method: (§1)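 Five library-drug doses in √10 steps were combined with a fixed anchor-drug dose, or a single drug was given alone, by pin tool to lung cancer cell lines in 1536-well plates the day after seeding. Nuclei were stained and counted after 5 days. Relative viability is the nuclei count in treated wells over that in vehicle wells, taken as the median of duplicate plates.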

Compound in the assay “Doramapimod + Trametinib”: Cc1ccc(-n2nc(C(C)(C)C)cc2NC(=O)Nc2ccc(OCCN3CCOCC3)c3ccccc23)cc1 [Doramapimod] + CC(=O)Nc1cccc(-n2c(=O)n(C3CC3)c(=O)c3c(Nc4ccc(I)cc4F)n(C)c(=O)c(C)c32)c1 [Trametinib] (partner 0.02 µM)
The gist of the method: as §1

Compound in the assay “RAF265 + Olaparib”: Cn1c(Nc2ccc(C(F)(F)F)cc2)nc2cc(Oc3ccnc(-c4ncc(C(F)(F)F)[nH]4)c3)ccc21 [RAF265] + O=C(c1cc(Cc2n[nH]c(=O)c3ccccc23)ccc1F)N1CCN(C(=O)C2CC2)CC1 [Olaparib] (partner 8 µM)
In a few lines: as §1

Compound in the assay “RAF265 + AZD7762”: Cn1c(Nc2ccc(C(F)(F)F)cc2)nc2cc(Oc3ccnc(-c4ncc(C(F)(F)F)[nH]4)c3)ccc21 [RAF265] + NC(=O)Nc1cc(-c2cccc(F)c2)sc1C(=O)N[C@H]1CCCNC1 [AZD7762] (partner 0.2 µM)
The gist of the method:
as §1

Take NCI-H520: the relative viability came to 1.01 with IPA-3 + Trametinib (first compound 0.2 µM); 0.654 with IPA-3 + Trametinib (first compound 0.6325 µM); 0.685 with IPA-3 + Trametinib (first compound 6.325 µM); 0.528 in the assay with IPA-3 + Trametinib (first compound 20 µM); 0.648 with Doramapimod + Trametinib (first compound 0.02 µM); 0.59 with Doramapimod + Trametinib (first compound 0.06325 µM). Moreover, the relative viability with Doramapimod + Trametinib (first compound 0.2 µM) was 0.72; in the assay with Doramapimod + Trametinib (first compound 0.6325 µM), 0.723; with Doramapimod + Trametinib (first compound 2 µM) it was 0.536; with RAF265 + Olaparib (first compound 0.01 µM), 0.366; in the assay with RAF265 + Olaparib (first compound 0.03162 µM), 0.316; with RAF265 + Olaparib (first compound 0.1 µM) it was 0.322. Also, the relative viability with RAF265 + Olaparib (first compound 0.3162 µM) was 0.301; with RAF265 + Olaparib (first compound 1 µM), 0.255.

Turning to NCI-H661, the relative viability amounted to 0.679 with IPA-3 + Trametinib (first compound 0.2 µM); 0.584 with IPA-3 + Trametinib (first compound 0.6325 µM); 0.613 with IPA-3 + Trametinib (first compound 2 µM); 0.589 with IPA-3 + Trametinib (first compound 6.325 µM); 0.555 with IPA-3 + Trametinib (first compound 20 µM); 0.642 with Doramapimod + Trametinib (first compound 0.02 µM). The relative viability in the assay with Doramapimod + Trametinib (first compound 0.06325 µM) was 0.58; with Doramapimod + Trametinib (first compound 0.2 µM), 0.598; with Doramapimod + Trametinib (first compound 0.6325 µM), 0.732; in the assay with Doramapimod + Trametinib (first compound 2 µM) it was 0.512; with RAF265 + Olaparib (first compound 0.01 µM) it was 0.775; in the assay with RAF265 + Olaparib (first compound 0.03162 µM) it was 0.667. Also, the relative viability amounted to 0.724 with RAF265 + Olaparib (first compound 0.1 µM), 0.605 with RAF265 + Olaparib (first compound 0.3162 µM) and 0.464 in the assay with RAF265 + Olaparib (first compound 1 µM).

Consider NCI-H1299, for which the relative viability in the assay with RAF265 + Olaparib (first compound 0.01 µM) turned out to be 0.984; with RAF265 + Olaparib (first compound 0.03162 µM), 0.906; with RAF265 + Olaparib (first compound 0.1 µM), 0.949; with RAF265 + Olaparib (first compound 0.3162 µM), 0.625; with RAF265 + Olaparib (first compound 1 µM) it was 0.664.

As for NCI-H1650, the relative viability is 0.996 with IPA-3 + Trametinib (first compound 0.2 µM); 0.558 with IPA-3 + Trametinib (first compound 0.6325 µM); 0.579 with IPA-3 + Trametinib (first compound 2 µM); 0.647 with IPA-3 + Trametinib (first compound 6.325 µM); 0.545 with IPA-3 + Trametinib (first compound 20 µM); 0.612 with Doramapimod + Trametinib (first compound 0.02 µM). Besides, the relative viability in the assay with Doramapimod + Trametinib (first compound 0.06325 µM) was 0.665; with Doramapimod + Trametinib (first compound 0.2 µM) it was 0.734; with Doramapimod + Trametinib (first compound 0.6325 µM), 0.763; with Doramapimod + Trametinib (first compound 2 µM), 0.496; with RAF265 + Olaparib (first compound 0.01 µM), 0.9; in the assay with RAF265 + Olaparib (first compound 0.03162 µM), 0.797. Further, the results for the relative viability with RAF265 + Olaparib (first compound 0.1 µM), with RAF265 + Olaparib (first compound 0.3162 µM) and in the assay with RAF265 + Olaparib (first compound 1 µM) were 0.824, 0.837 and 0.826, respectively.

NCI-H1703: the relative viability in the assay with RAF265 + AZD7762 (first compound 0.01 µM) turned out to be 0.132; with RAF265 + AZD7762 (first compound 0.03162 µM), 0.133; with RAF265 + AZD7762 (first compound 0.1 µM) it was 0.126; with RAF265 + AZD7762 (first compound 0.3162 µM) it was 0.142; with RAF265 + AZD7762 (first compound 1 µM) it was 0.099; in the assay with RAF265 + Olaparib (first compound 0.01 µM) it was 0.358. Also, the relative viability in the assay with RAF265 + Olaparib (first compound 0.03162 µM) is 0.416; in the assay with RAF265 + Olaparib (first compound 0.1 µM) it was 0.342; in the assay with RAF265 + Olaparib (first compound 0.3162 µM), 0.33; with RAF265 + Olaparib (first compound 1 µM), 0.273.

As to NCI-H2009, the relative viability with IPA-3 + Trametinib (first compound 0.2 µM) was determined as 0.307; with IPA-3 + Trametinib (first compound 0.6325 µM), 0.266; with IPA-3 + Trametinib (first compound 2 µM), 0.245; with IPA-3 + Trametinib (first compound 6.325 µM), 0.279; with IPA-3 + Trametinib (first compound 20 µM), 0.241; with Doramapimod + Trametinib (first compound 0.02 µM), 0.285. Moreover, the relative viability in the assay with Doramapimod + Trametinib (first compound 0.06325 µM) is 0.247; with Doramapimod + Trametinib (first compound 0.2 µM), 0.351; with Doramapimod + Trametinib (first compound 0.6325 µM) it was 0.308; with Doramapimod + Trametinib (first compound 2 µM), 0.239; in the assay with RAF265 + Olaparib (first compound 0.01 µM) it was 0.785; in the assay with RAF265 + Olaparib (first compound 0.03162 µM), 0.594. In addition, the relative viability with RAF265 + Olaparib (first compound 0.1 µM) came out at 0.603; with RAF265 + Olaparib (first compound 0.3162 µM), 0.671; in the assay with RAF265 + Olaparib (first compound 1 µM) it was 0.579.

NCI-H2023: the relative viability with IPA-3 + Trametinib (first compound 0.2 µM) was 0.735; with IPA-3 + Trametinib (first compound 0.6325 µM) it was 0.453; with IPA-3 + Trametinib (first compound 2 µM), 0.659; with IPA-3 + Trametinib (first compound 6.325 µM), 0.612; in the assay with IPA-3 + Trametinib (first compound 20 µM) it was 0.584; with Doramapimod + Trametinib (first compound 0.02 µM), 0.493. The relative viability with Doramapimod + Trametinib (first compound 0.06325 µM) came out at 0.447; in the assay with Doramapimod + Trametinib (first compound 0.2 µM), 0.489; with Doramapimod + Trametinib (first compound 0.6325 µM), 0.634; with Doramapimod + Trametinib (first compound 2 µM), 0.548; with RAF265 + Olaparib (first compound 0.01 µM), 0.491; with RAF265 + Olaparib (first compound 0.03162 µM), 0.452. The relative viability with RAF265 + Olaparib (first compound 0.1 µM) stood at 0.544; in the assay with RAF265 + Olaparib (first compound 0.3162 µM), 0.524; with RAF265 + Olaparib (first compound 1 µM) it was 0.374.

Take NCI-H2228: the relative viability turned out to be 0.768 with IPA-3 + Trametinib (first compound 0.2 µM); 0.405 with IPA-3 + Trametinib (first compound 0.6325 µM); 0.365 with IPA-3 + Trametinib (first compound 2 µM); 0.634 in the assay with IPA-3 + Trametinib (first compound 6.325 µM); 0.379 in the assay with IPA-3 + Trametinib (first compound 20 µM); 0.391 with Doramapimod + Trametinib (first compound 0.02 µM). Further, the relative viability is 0.44 with Doramapimod + Trametinib (first compound 0.06325 µM); 0.46 in the assay with Doramapimod + Trametinib (first compound 0.2 µM); 0.519 with Doramapimod + Trametinib (first compound 0.6325 µM); 0.484 with Doramapimod + Trametinib (first compound 2 µM); 0.915 with RAF265 + Olaparib (first compound 0.01 µM); 0.691 in the assay with RAF265 + Olaparib (first compound 0.03162 µM). Besides, the relative viability with RAF265 + Olaparib (first compound 0.1 µM) was found to be 0.726; with RAF265 + Olaparib (first compound 0.3162 µM), 0.291; with RAF265 + Olaparib (first compound 1 µM), 0.246.

In the case of SK-LU-1, the relative viability with IPA-3 + Trametinib (first compound 0.2 µM) is 0.585; with IPA-3 + Trametinib (first compound 0.6325 µM), 0.474; in the assay with IPA-3 + Trametinib (first compound 2 µM), 0.506; with IPA-3 + Trametinib (first compound 6.325 µM), 0.467; with IPA-3 + Trametinib (first compound 20 µM), 0.571; in the assay with Doramapimod + Trametinib (first compound 0.02 µM), 0.469. Also, the relative viability came out at 0.593 with Doramapimod + Trametinib (first compound 0.06325 µM); 0.588 in the assay with Doramapimod + Trametinib (first compound 0.2 µM); 0.624 with Doramapimod + Trametinib (first compound 0.6325 µM); 0.555 with Doramapimod + Trametinib (first compound 2 µM); 0.511 with RAF265 + Olaparib (first compound 0.01 µM); 0.386 with RAF265 + Olaparib (first compound 0.03162 µM). The values for the relative viability with RAF265 + Olaparib (first compound 0.1 µM), in the assay with RAF265 + Olaparib (first compound 0.3162 µM) and with RAF265 + Olaparib (first compound 1 µM) were 0.419, 0.283 and 0.265, respectively.

As for SK-MES-1, the relative viability with IPA-3 + Trametinib (first compound 0.2 µM) amounted to 0.568; with IPA-3 + Trametinib (first compound 0.6325 µM), 0.528; with IPA-3 + Trametinib (first compound 2 µM), 0.618; with IPA-3 + Trametinib (first compound 6.325 µM), 0.639; with IPA-3 + Trametinib (first compound 20 µM), 0.659; with Doramapimod + Trametinib (first compound 0.02 µM), 0.55. The relative viability with Doramapimod + Trametinib (first compound 0.06325 µM) was 0.56; with Doramapimod + Trametinib (first compound 0.2 µM), 0.477; in the assay with Doramapimod + Trametinib (first compound 0.6325 µM) it was 0.519; with Doramapimod + Trametinib (first compound 2 µM), 0.483; in the assay with RAF265 + Olaparib (first compound 0.01 µM) it was 0.582; with RAF265 + Olaparib (first compound 0.03162 µM), 0.308. For the same cell line, the relative viability in the assay with RAF265 + Olaparib (first compound 0.1 µM) was found to be 0.229; with RAF265 + Olaparib (first compound 0.3162 µM), 0.208; with RAF265 + Olaparib (first compound 1 µM), 0.204.

SW 1573: the relative viability was found to be 0.67 with IPA-3 + Trametinib (first compound 0.2 µM); 0.546 with IPA-3 + Trametinib (first compound 0.6325 µM); 0.46 in the assay with IPA-3 + Trametinib (first compound 2 µM); 0.532 with IPA-3 + Trametinib (first compound 6.325 µM); 0.271 with IPA-3 + Trametinib (first compound 20 µM); 0.524 in the assay with Doramapimod + Trametinib (first compound 0.02 µM). Also, the relative viability was determined as 0.429 with Doramapimod + Trametinib (first compound 0.06325 µM); 0.451 with Doramapimod + Trametinib (first compound 0.2 µM); 0.452 in the assay with Doramapimod + Trametinib (first compound 0.6325 µM); 0.514 with Doramapimod + Trametinib (first compound 2 µM); 0.474 in the assay with RAF265 + Olaparib (first compound 0.01 µM); 0.388 in the assay with RAF265 + Olaparib (first compound 0.03162 µM). For the same cell line, the relative viability with RAF265 + Olaparib (first compound 0.1 µM) came out at 0.304; with RAF265 + Olaparib (first compound 0.3162 µM), 0.28; with RAF265 + Olaparib (first compound 1 µM), 0.248.
